Assay results: patent US20210198284A1, “GOLD COMPOSITIONS AND METHODS OF USE THEREOF” (THE UNIVERSITY OF MASSACHUSETTS, priority 2018, published 2021)

Experiments:
Assay type in all cases: cell-based
Gram-negative strains = assay: In vitro antimicrobial activities, Gram-negative strains taken together; details: Gram-negative strains tested
Description: Antibacterial assay. The minimum inhibitory concentrations (MICs) and the minimum bactericidal concentrations (MBCs) were determined by the broth microdilution method as described in the CLSI (The Clinical & Laboratory Standards Institute) guidelines (Performance standards for antimicrobial susceptibility testing: Clinical and Laboratory Standards Institute (CLSI), Twenty-Fifth informational supplement. Document M100-S25: […]; Vol. 35). All bacterial strains were cultured in cation-adjusted Muller Hinton broth (CAMHB) up to log-phase and then diluted to give a concentration of 7.5×10^5 CFU/mL. The gold complexes were dissolved in DMSO or water as stock solutions, which were then serially diluted two-fold in a 96-well plate. Aliquots (100 μL) of the dilutions were mixed with equal volumes of the bacterium suspension in a 96 well plate (in triplicates). The plates were incubated at 37° C. for 18 h without shaking. Negative and positive controls were included in the same well plate with wells having the culture medium only and bacteria solution only, respectively. The sample concentration that gave inhibition values above 90% were determined as MICs as calculated from absorbance values at 600 nm (OD600) obtained using a Tecan SPARK IOM plate reader. […] The sample concentration that gave no colony formed on agar plates were determined as MBCs. […]

C. neoformans KN99 = assay: Antifungal MIC
A549 cells = assay: Cytotoxicity assay (resazurin); details: 20 h, mean±S.E.M. from two independent experiments
Summary of the method: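 A549 cells (5×10^3/well) were exposed to two-fold serial dilutions from 128 μg/mL (compounds 9-17 from 1,280 μg/mL) for 20 h at 37 °C. Resazurin was then added for 3 h and fluorescence read at ex 560/em 590 nm. IC50 came from curve fitting of inhibition vs log concentration; triplicates, repeated twice.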

MRSA = assay: Antimicrobial screening of auranofin analogs
Excerpt: (§1) Auranofin analogs were synthesized by varying the structure of the thio-sugar ligand and the phosphine ligands. These analogs were screened for antimicrobial activity against 5 key ESKAPE pathogens and E. coli. (Table 3). The “ESKAPE” pathogens consist of six pathogens with growing multidrug resistant virulence: Enterococcus faecium (gram-positive), Staphylococcus aureus (gram-positive), Klebsiella pneumoniae (gram-negative), Acinetobacter (gram-negative), Pseudomonas aeruginosa (gram-negative) and Eterobacter (gram-negative). According to the data from the Centers for Disease Control and Prevention (CDC), two-thirds of all clinical infections are caused by these six ESKAPE bacteria.

P. aeruginosa = assay: Antimicrobial screening of auranofin analogs
Excerpt: as §1

E. cloacae = assay: Antimicrobial screening of auranofin analogs
Excerpt: as §1

E. faecalis = assay: Antimicrobial screening of auranofin analogs
Excerpt: as §1

S. aureus = assay: Antimicrobial screening of auranofin analogs
Excerpt: as §1

K. pneumoniae = assay: Antimicrobial screening of auranofin analogs
Excerpt: as §1

[1] = test system: C. neoformans ATCC 208821; assay: Antifungal MIC; details: for MIC: C. neoformans ATCC 208821
C. albicans ATCC 90028 = assay: Antifungal MIC

With “(2,3,4,6-Tetra-O-acetyl-1-thio-β-D-glucopyranosato) (triethylphosphine) gold(I) [Compound 1, reference compound]” the activity in words (Gram-negative strains) was “no activity”, the MIC (C. neoformans KN99) was 16 µg/mL and the “IC50 against A549 cells” value (A549 cells) was 7.7 ± 1.3 µg/mL. For the same substance, the “bactericidal activity at the lowest tested concentration” value (“bactericidal activity” for short) (MRSA) was ≤ 0.25 µg/mL, the activity in words (P. aeruginosa) was “lacked significant activity” and the activity in words (E. cloacae) was “lacked significant activity”. For the same substance, the “bactericidal activity” value (E. faecalis) was ≤ 0.5 µg/mL, the “bactericidal activity” value (S. aureus) was ≤ 0.5 µg/mL and the activity in words (K. pneumoniae) was “lacked significant activity”. The “antifungal activity in words” value ([1]; C. neoforman, strain not named) was “moderate antifungal activity”, the MIC [1] was 8 µg/mL and the MIC (C. albicans ATCC 90028) was >32 µg/mL.

For “(2-Aminobenzenethiolato)(triethylphosphine) gold(I) [Compound 19]”, the MIC (C. neoformans KN99) was 2 µg/mL and the “IC50 against A549 cells” value (A549 cells) was 7.5 ± 0.1 µg/mL.

With “(2-Mercaptoethanolato)(trimethylphosphine) gold (I) [Compound 27]” the “IC50 against A549 cells” value (A549 cells) was 12.3 ± 3.1 µg/mL.

For “[2,3,4,6-Tetra-O-acetyl-α-D-glucopyranosyl (1→4)-2,3,6-tri-O-acetyl-1-thio-β-D-glucopyranosato](triethylphosphine) gold(I) [Compound 5]”, the “IC50 against A549 cells” value (A549 cells) was 15.2 ± 0.3 µg/mL, the MIC [1] was >32 µg/mL and the MIC (C. albicans ATCC 90028) was >32 µg/mL.
